From paper PMC7998669, “7-(2-Anilinopyrimidin-4-yl)-1-benzazepin-2-ones Designed by a “Cut and Glue” Strategy Are Dual Aurora A/VEGF-R Kinase Inhibitors” (Molecules, 2021)
Values after ≈ are worked out from the molar mass of the structure shown.

Tests used:
Aurora A = target: Aurora A; design: method as in PMID 27406026; conditions: cited from earlier work
Aurora-B = target: T1, Aurora-B (Homo sapiens, UniProt Q96GD4); experiment: radiometric 33PanQinase protein kinase assay; format: biochemical; conditions: radiometric assay, 1 µM ATP
T1 construct: host or cells: Sf9 (baculovirus)
Experimental: (§1) The inhibitory activity of prototype 2a was determined in a panel of 24 tumor-relevant protein kinases using a radiometric assay. Only the kinases Aurora A, VEGF-R2 and VEGF-R3 were inhibited with single digit micromolar IC50 values (Table 2). Structural modifications were then implemented, particularly directed to improve inhibition of Aurora A. The so-designed congeners with small substituents at the aniline ring 2b–2n were examined for inhibition of Aurora A and of VEGF-R2, VEGF-R3 and Aurora B for comparison (Table 3).
(§2) The screening for protein kinase inhibition was performed with the radiometric ^33Panqinase activity assay at Reaction Biology Europe GmbH (Freiburg) using a robotic system (Beckmann Coulter/SagianRoboter) and 96-well plates (FlashPlates, Perkin/Elmer/NEN, Boston, MA, USA). In brief, the transfer of ^33P-phosphate into the substrate was measured with a microplate scintillation counter (Microbeta Trilux, Wallace). Protein kinases were expressed in Sf9 cells as recombinant glutathione S-transferase (GST) or polyhistidine (His)-tagged proteins in baculovirus. Isolation and purification of expressed kinases were performed with affinity chromatography by using GSH agarose (Sigma) or Ni-NTA agarose (Qiagen). The standard solution for each enzyme contained: 60 mM HEPES-NaOH (pH 7.5), 3 mM MgCl2, 3 µM sodium orthovanadate, 1.2 mM DTT, 50 µg/mL PEG20000 and 1 µM [γ-^33P]-ATP (approximately 5 × 10^5 cpm per well). In chronological order the reaction mixture was prepared: 20 µL standard solution, 5 µL ATP solution in water, 5 µL of the compound in 10% DMSO and 20 µL of enzyme/substrate mixture (50:50). Each kinase contained different substrates in different concentrations: 125 ng/50 µL Poly(Glu, Tyr)4:1 for 20 ng/50 µL IGF1-R, 25 ng/50 µL IGF1-R, 20 ng/50 µL EGF-R, 25 ng/50 µL EGF-R, 40 ng/50 µL EGF-R, 10 ng/50 µL EPHB4, 20 ng/50 µL EPHB4, 200 ng/50 µL ERBB2, 10 ng/50 µL SRC, 100 ng/50 µL FAK, 200 ng/50 µL FAK, 50 ng/50 µL VEGF-R2, 100 ng/50 µL VEGF-R3, 200 ng/50 µLTIE2; 250 ng/50 µL Poly(Glu, Tyr)4:1 for 200 ng/50 µL TIE2; 500 ng/50 µL tetra (LRRWSLG) for 50 ng/50 µL Aurora-A, 25 ng/50 µL PAK4, 25 ng/50 µL PDK1; 250 ng/50 µL tetra (LRRWSLG) for 50 ng/50 µL Aurora-B, 200 ng/50 µL Aurora-B; 125 ng/50 µL Histon H1 for 100 ng/50 µL CDK2/CycA; 250 ng/50 µL Rb-CTF for 50 ng/50 µL CDK/CycD1; 500 ng/50 µL Rb-CTF for 50 ng/50 µL CDK4/CycD1; 125 ng/50 µL Poly(ala, Glu, Lys, Tyr)6:2:5:1 for 25 ng/50 µL INS-R, 50 ng/50 µL PDGFR-beta, 100 ng/50 µL PDGFR-beta, 100 ng/50 µL FLT3, 150 ng/50 µL FLT3, 20 ng/50 µL MET, 50 ng/50 µL MET, 100 ng/50 µL MET; 250 ng/50 µL Casein for 200 ng/50 µL CK2-alpha1, 200 ng/50 µL PLK1; 1000 ng/50 µL Casein for 200 ng/50 µL PLK1, 200 ng/50 µL CK2-alpha1; 1000 ng/50 µLGSK3 (14–27) for 100 ng/50 µL AKT1; 125 ng/50 µL p53-CTM for 150 ng/50 µL CK2-alpha1, 200 ng/50 µLCK2-alpha1; 250 ng/50 µL MEK-KM for 20 ng/50 µL B-RAF-VE; autophosphorylation at ARK5, COT and SAK. After incubation (80 min, 30 °C) the reaction was stopped by adding 50 µL 2% (v/v) phosphoric acid to the reaction mixture. The microplate was washed twice with 200 µL 0.9% (v/v) saturated sodium chloride or water. The measured radioactivity, conditioned by the incorporation of [γ-^33P]-phosphate, is proportional to kinase activity. Furthermore, low control and high control were measured to determine the residual activity (%). As low controls, mixtures with substrate, but without enzyme were used to determine the unspecific binding of [γ-^33P]-phosphate to the well plate. Mixtures with enzyme, but without inhibitor were used as high controls to determine maximum enzyme activity. The IC50-values of the distinct compounds were calculated with Quattro Workflow V1.1.0.8 (Quattro Research GmbH, München, Germany). Dose response curves were generated by measurement of the residual activity of ten different inhibitor concentrations (0.1 mM, 30.0 µM, 10 µM, 3.0 µM, 1.0 µM, 0.3 µM, 0.1 µM, 30.0 nM, 10.0 nM and 3.0 nM). […]

VEGF-R3 = target: T2, VEGF-R3 (Homo sapiens, UniProt P35916); experiment: radiometric 33PanQinase protein kinase assay; format: biochemical; conditions: radiometric assay, 1 µM ATP
T2 construct: host or cells: Sf9 (baculovirus)
Experimental: as §1, §2

VEGF-R2 = target: T3, VEGF-R2 (Homo sapiens, UniProt P35968); experiment: radiometric 33PanQinase protein kinase assay; format: biochemical; conditions: radiometric assay, 1 µM ATP
T3 construct: host or cells: Sf9 (baculovirus)
Experimental: as §1, §2

Aurora-A = target: T4, Aurora-A (Homo sapiens, UniProt O14965); experiment: radiometric 33PanQinase protein kinase assay; format: biochemical; conditions: radiometric assay, 1 µM ATP
T4 construct: host or cells: Sf9 (baculovirus)
T4 sequence (O14965 1-403): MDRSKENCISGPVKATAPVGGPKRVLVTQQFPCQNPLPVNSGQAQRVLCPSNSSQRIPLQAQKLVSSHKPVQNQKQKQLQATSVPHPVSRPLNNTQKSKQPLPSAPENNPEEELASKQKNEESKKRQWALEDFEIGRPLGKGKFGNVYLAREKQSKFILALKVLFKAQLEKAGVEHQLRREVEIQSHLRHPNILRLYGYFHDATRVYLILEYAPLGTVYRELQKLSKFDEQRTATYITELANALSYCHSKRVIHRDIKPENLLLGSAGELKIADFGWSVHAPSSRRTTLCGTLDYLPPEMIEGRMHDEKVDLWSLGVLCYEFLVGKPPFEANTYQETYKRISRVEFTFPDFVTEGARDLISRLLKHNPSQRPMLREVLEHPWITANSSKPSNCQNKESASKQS
Experimental: as §1, §2

[1] = kinetic solubility by nephelometry; format: physicochemical; conditions: phosphate buffer, 25 °C, pH 7.4, aqueous buffer, kinetic from dmso stock, phosphate buffer pH 7.4, 1% DMSO, mean of two measurements, range in brackets
Experimental: The kinetic solubility of test compounds was determined by nephelometry. Dilution series of test compounds in DMSO with eight to ten different concentrations were prepared. The dilutions were pipetted (2 µL) into the cavities of a 96 well plate (CorningTM UV-transparent flat-bottom microtiter plate; Corning Incorporated, Kennebunk, ME, USA). A phosphate buffer solution pH 7.4 (198 µL) was added, so that the DMSO concentration in the measured solutions was 1%. Three wells were filled with DMSO and phosphate buffer pH 7.4 (2:198) and measured as blank values. The 96 well plate prepared in this way was measured with the NEPHELOstar® Plus nephelometer (BMG Labtech GmbH, Ortenberg, Germany, software: Omega 5.11) at a temperature of 25 °C. Previously, the plate was shaken at 500 rpm for 10 s and the laser intensity was set to 80%. The beam focus was set to 2.50 mm. If the test substance is completely soluble, only a scattering close to the blank value is detected. As soon as a critical concentration is reached in which the kinetic solubility of the test compound is exceeded, solid particles precipitate. Undissolved particles in the sample scatter the laser beam. The intensity of the scattered light is determined, which is proportional to the number of particles in the solution. The blank values were determined and subtracted from the measured values of the test compounds. By measuring different concentrations of the test substances, different intensities of the scattered light, indicated as RNU (relative nephelometric units), were determined. Kick off curves were obtained by plotting concentrations against the RNU values. The point of intersection of the horizontal and of the ascending part of the kick-off curve indicated the kinetic solubility concentration.

T1 sequence (Q96GD4 whole entry): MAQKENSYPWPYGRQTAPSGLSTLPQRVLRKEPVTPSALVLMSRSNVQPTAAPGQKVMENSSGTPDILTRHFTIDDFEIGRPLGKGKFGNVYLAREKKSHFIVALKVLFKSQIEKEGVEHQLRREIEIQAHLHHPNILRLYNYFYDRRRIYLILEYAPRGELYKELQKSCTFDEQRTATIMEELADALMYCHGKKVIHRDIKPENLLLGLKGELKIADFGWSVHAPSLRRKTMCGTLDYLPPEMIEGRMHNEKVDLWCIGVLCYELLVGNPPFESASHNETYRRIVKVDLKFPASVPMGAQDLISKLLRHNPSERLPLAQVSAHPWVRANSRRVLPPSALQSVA
T2 sequence (P35916 25-1363): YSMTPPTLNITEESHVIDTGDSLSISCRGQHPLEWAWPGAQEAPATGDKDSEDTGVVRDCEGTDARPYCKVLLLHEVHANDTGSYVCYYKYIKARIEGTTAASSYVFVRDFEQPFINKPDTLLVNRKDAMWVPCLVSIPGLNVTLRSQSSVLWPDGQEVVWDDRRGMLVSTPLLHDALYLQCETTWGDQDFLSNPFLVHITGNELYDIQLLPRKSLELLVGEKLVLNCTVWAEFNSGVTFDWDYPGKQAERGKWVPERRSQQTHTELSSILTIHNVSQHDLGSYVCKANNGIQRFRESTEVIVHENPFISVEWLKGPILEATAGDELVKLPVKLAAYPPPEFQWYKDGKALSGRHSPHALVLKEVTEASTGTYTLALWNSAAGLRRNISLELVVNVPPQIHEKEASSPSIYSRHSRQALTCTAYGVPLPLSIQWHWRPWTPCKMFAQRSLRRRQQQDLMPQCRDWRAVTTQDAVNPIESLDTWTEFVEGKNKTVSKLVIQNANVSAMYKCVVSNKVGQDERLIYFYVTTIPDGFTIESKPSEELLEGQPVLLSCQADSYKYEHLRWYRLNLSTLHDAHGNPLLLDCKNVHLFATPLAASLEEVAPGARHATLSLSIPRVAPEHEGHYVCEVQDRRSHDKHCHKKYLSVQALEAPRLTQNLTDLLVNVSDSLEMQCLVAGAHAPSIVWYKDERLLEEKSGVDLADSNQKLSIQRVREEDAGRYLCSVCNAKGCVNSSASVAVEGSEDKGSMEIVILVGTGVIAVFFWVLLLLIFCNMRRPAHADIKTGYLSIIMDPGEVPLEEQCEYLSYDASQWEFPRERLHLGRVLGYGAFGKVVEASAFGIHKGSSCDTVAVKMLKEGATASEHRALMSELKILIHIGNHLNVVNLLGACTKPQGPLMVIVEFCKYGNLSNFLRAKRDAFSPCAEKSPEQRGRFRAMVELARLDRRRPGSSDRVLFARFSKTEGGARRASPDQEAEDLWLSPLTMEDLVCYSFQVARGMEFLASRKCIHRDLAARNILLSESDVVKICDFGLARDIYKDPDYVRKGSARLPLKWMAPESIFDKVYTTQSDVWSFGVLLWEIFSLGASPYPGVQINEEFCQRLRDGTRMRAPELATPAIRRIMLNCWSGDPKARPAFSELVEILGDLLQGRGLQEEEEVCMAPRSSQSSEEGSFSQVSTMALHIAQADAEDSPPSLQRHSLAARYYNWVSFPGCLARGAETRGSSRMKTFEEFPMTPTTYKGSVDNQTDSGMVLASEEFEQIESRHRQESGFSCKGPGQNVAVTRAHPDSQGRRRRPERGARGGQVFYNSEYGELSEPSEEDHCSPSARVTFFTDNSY
T3 sequence (P35968 20-1356): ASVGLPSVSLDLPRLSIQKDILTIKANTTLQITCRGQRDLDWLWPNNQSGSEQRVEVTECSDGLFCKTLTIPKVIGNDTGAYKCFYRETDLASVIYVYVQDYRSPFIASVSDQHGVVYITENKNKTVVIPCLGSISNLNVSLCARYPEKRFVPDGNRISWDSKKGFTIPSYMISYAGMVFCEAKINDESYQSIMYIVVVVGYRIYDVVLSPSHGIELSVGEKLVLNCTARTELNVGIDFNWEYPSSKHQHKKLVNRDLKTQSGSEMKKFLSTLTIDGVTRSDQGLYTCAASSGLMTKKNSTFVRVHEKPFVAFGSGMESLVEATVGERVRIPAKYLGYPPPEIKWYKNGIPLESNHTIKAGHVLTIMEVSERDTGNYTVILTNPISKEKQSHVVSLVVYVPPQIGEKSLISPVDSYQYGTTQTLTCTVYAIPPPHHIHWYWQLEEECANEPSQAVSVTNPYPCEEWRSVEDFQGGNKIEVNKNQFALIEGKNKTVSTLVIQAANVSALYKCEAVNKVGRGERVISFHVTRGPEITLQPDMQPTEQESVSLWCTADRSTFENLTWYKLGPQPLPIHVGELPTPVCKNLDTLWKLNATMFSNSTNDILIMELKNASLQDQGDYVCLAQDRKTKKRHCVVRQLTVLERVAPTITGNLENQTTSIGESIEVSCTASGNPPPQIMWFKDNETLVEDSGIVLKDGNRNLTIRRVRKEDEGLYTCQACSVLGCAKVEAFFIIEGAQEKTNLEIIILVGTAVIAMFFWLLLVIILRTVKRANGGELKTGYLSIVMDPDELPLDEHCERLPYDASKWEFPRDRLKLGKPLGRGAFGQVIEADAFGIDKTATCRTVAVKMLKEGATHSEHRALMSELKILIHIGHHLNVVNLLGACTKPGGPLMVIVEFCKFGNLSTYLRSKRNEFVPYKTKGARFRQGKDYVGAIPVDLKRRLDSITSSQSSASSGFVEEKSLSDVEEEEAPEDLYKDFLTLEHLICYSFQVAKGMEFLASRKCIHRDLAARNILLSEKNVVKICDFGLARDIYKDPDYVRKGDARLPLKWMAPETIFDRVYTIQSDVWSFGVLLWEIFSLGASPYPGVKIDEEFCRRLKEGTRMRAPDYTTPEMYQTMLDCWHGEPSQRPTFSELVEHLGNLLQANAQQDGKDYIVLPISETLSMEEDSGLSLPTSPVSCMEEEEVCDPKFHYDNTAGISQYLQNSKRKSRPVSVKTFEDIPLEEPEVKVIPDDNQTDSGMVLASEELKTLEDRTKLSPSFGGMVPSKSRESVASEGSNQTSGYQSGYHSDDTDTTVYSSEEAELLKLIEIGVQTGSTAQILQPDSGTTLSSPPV

IC50 (Aurora-A) | solubility kinetic at 10 s [1] | SMILES | also measured
1700 nM | 112 µM (≈ 38.8 µg/mL) | O=C1CCCc2cc(-c3ccnc(Nc4cccc(O)c4)n3)ccc2N1 [Compound 2m, 7-[2-(3-Hydroxyanilino)pyrimidin-4-yl]-1,3,4,5-tetrahydro-2H-1-benzazepin-2-one] | IC50 (Aurora-B): 6700 nM; IC50 (VEGF-R3): 540 nM; IC50 (VEGF-R2): 780 nM
1800 nM | 25.3 µM (≈ 13.2 µg/mL) | CN1CCN(CCCOc2cccc(Nc3nccc(-c4ccc5c(c4)CCCC(=O)N5)n3)c2)S1(=O)=O [Compound 14a, 7-{2-[(3-(3-(5-Methyl-1,1-dioxido-1,2,5-thiadiazolidin-2-yl)propoxy)phenyl)amino]pyrimidin-4-yl}-1,3,4,5-tetrahydro-2H-benzo[b]azepin-2-one] | –
3000 nM | 19.6 µM (≈ 10.8 µg/mL) | O=C1CCCc2cc(-c3ccnc(Nc4cccc(OCCCNS(=O)(=O)N5CCOCC5)c4)n3)ccc2N1 [Compound 14b, N-{3-[3-((4-(2-Oxo-2,3,4,5-tetrahydro-1H-benzo[b]azepin-7-yl)pyrimidin-2-yl)amino)phenoxy]-propyl}morpholine-4-sulfonamide] | –
4500 nM | 25.3 µM (≈ 13.6 µg/mL) | O=C1CCCc2cc(-c3ccnc(Nc4cccc(OCCCNS(=O)(=O)N5CCCC5)c4)n3)ccc2N1 [Compound 14c, N-{3-[3-((4-(2-Oxo-2,3,4,5-tetrahydro-1H-benzo[b]azepin-7-yl)pyrimidin-2-yl)amino)phenoxy]propyl}-pyrrolidine-1-sulfonamide] | –
1500 nM | 25.2 µM (≈ 13.2 µg/mL) | O=C1CCCc2cc(-c3ccnc(Nc4cccc(OCCCNS(=O)(=O)N5CCC5)c4)n3)ccc2N1 [Compound 14d, N-{3-[3-((4-(2-Oxo-2,3,4,5-tetrahydro-1H-benzo[b]azepin-7-yl)pyrimidin-2-yl)amino)phenoxy]propyl}-azetidine-1-sulfonamide] | –
1100 nM | 21.4 µM (≈ 11.8 µg/mL) | COc1ccc(Nc2nccc(-c3ccc4c(c3)CCCC(=O)N4)n2)cc1OCCCN1CCN(C)S1(=O)=O [Compound 14e, 7-(2-((4-Methoxy-3-(3-(5-methyl-1,1-dioxido-1,2,5-thiadiazolidin-2-yl)propoxy)phenyl)amino)pyrimidin-4-yl)-1,3,4,5-tetrahydro-2H-benzo[b]azepin-2-one] | –
2500 nM | 25 µM (≈ 14.6 µg/mL) | COc1ccc(Nc2nccc(-c3ccc4c(c3)CCCC(=O)N4)n2)cc1OCCCNS(=O)(=O)N1CCOCC1 [Compound 14f, N-{3-[2-Methoxy-5-((4-(2-oxo-2,3,4,5-tetrahydro-1H-benzo[b]azepin-7-yl)pyrimidin-2-yl)amino)phenoxy]-propyl}morpholine-4-sulfonamide] | –
820 nM | 34.2 µM (≈ 18.9 µg/mL) | COc1ccc(Nc2nccc(-c3ccc4c(c3)CCCC(=O)N4)n2)cc1OCCCNS(=O)(=O)N1CCC1 [Compound 14g, N-{3-[2-Methoxy-5-((4-(2-oxo-2,3,4,5-tetrahydro-1H-benzo[b]azepin-7-yl)pyrimidin-2-yl)amino)phenoxy]-propyl}azetidine-1-sulfonamide] | –
– | – | COc1cc(Nc2ncc3c(n2)-c2ccc(Cl)cc2C(c2c(F)cccc2OC)=NC3)ccc1C(=O)O [alisertib] | IC50 (Aurora A): 1.2 nM
